Measured values from patent US10577322B2, “5-methoxytryptophan and its derivatives and uses thereof” (National Health Research Institutes, priority 2015, dated 2020).

Tests used:
[1] = system: CLP; experiment: Cecal ligation and puncture (CLP) model, survival; format: in vivo, mice
Description: To confirm the protective effect of 5-MTP in endotoxemia, we used cecal ligation and puncture (CLP) model in mice. 5-MTP-afforded protection was also observed in mice challenged with CLP.

[2] = system: Myeloperoxidase (MPO); experiment: MPO activity assay in lung tissues; format: in vivo, mice; settings: 5-MTP 23.4 mg/kg, 16 h
Procedure: Myeloperoxidase (MPO) activity of lung tissue was assayed by Myeloperoxidase fluorometric detection kit (Enzo Life Sciences). In brief, lung tissue specimens were homogenized by Tissuelyser II (Qiagen) in tissue protein extraction buffer (pH 7.4 25 mM Tris buffer, 150 mM NaCl, 0.5% sodium deoxycholate, 2% NP-40 and 0.2% SDS), and centrifuged at 12,000×g for […] at 4° C. The supernatants were removed and the pellets were homogenized by Tissuelyser II for 30 seconds in 1 ml assay buffer with 0.5% hexadecyltrimethylammonium, and then samples were frozen, thawed three times, andcentrifuged at 8,000×g for 20 min. Collected supernatants and standard were mixed with reaction cocktail (50 μM detection reagent and 20 μM hydrogen peroxide in 1X assay buffer at room temperature in the dark. After 30 min incubation, MPO activity was determined by measuring the fluorescence intensity at excitation 530 nm and emission at 600 nm in a fluorescent plate reader.
In addition, MPO activity was determined in lung tissues of mice treated with saline or LPS in the presence or absence of 5-MTP (23.4 mg/kg) for 16 h (n=6 mice/group).

COc1ccc2[nH]cc(C[C@H](N)C(=O)O)c2c1 [5-MTP, 5-methoxytryptophan]
duration of improved survival [1]: maintained up to day 6
survival at day 2 ([1]; 5-MTP 30 mins after surgery): 44.4%
lung MPO activity [2]: reduced neutrophil infiltration to the basal level
